From article PMC10584170, “Machine learning-based phenotypic imaging to characterise the targetable biology of Plasmodium falciparum male gametocytes for the development of transmission-blocking antimalarials” (PLOS Pathogens, 2023)

What was measured:
[1] = tested on: P. falciparum female gametocytes; assay: P. falciparum Dual Gamete Formation Assay (PfDGFA), female readout (Pfs25-positive female gametes); format: cell-based, Plasmodium falciparum NF54; conditions: for Average inhibition female (%): average of replicates; for % inhibition female (individual replicates) R1: replicate R1; for % inhibition female (individual replicates) R3: replicate R3; for % inhibition female (individual replicates) R4: replicate R4
Method in brief: (§1)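 Male and female gamete formation were quantified by microscopy image analysis following 24 h incubation of mature NF54 gametocytes with compound and activation at 28°C with xanthurenic acid.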

[2] = tested on: P. falciparum male gametocytes; assay: P. falciparum Dual Gamete Formation Assay (PfDGFA), male readout (exflagellation); format: cell-based, Plasmodium falciparum NF54; conditions: for Average inhibition male (%): average of replicates; for % inhibition male (individual replicates) R1: replicate R1; for % inhibition male (individual replicates) R3: replicate R3; for % inhibition male (individual replicates) R4: replicate R4; for Activity: hit = >50% inhibition in male or female readout in at least 3 replicates, 0 = no class assigned
Method in brief: as §1

[3] = 2µM, 24h preincubation with gametocytes prior to induction of gametogenesis
[4] = 2µM, 24h preincubation, hits selected on >50% inhibition in the female readout across replicates
[5] = 2µM, 24h preincubation, hits selected on >50% inhibition in the male readout across replicates
[6] = PfDGFA at 2µM, 24h preincubation
[7] = PfDGFA at 2µM, 24h preincubation with gametocytes
[8] = number of replicates with >50% inhibition in the female readout, 2µM
[9] = number of replicates with >50% inhibition in the male readout, 2µM
[10] = PfDGFA at 2µM, 24h preincubation with gametocytes prior to induction of gametogenesis
[11] = 2µM, 24h preincubation, number of replicates with >50% inhibition in the female readout
[12] = 2µM, 24h preincubation, number of replicates with >50% inhibition in the male readout
[13] = 2µM, 24h preincubation with gametocytes

## COc1ccccc1N1CCN(CCCCNC(=O)c2ccc(NC(=O)c3ccc(OC(F)(F)F)cc3)cc2)CC1.Cl [TCMDC-137780]
[1]; [3]
  Average inhibition female (%): 5.4%
  % inhibition female (individual replicates) R1: 10.5%
  % inhibition female (individual replicates) R3: -10.0%
  % inhibition female (individual replicates) R4: 19.1%
[1]; [4]
  HitlevelF: 0
[2]; [3]
  Average inhibition male (%): -3.4%
  % inhibition male (individual replicates) R1: -7.9%
  % inhibition male (individual replicates) R3: -14.4%
  % inhibition male (individual replicates) R4: 10.6%
[2]; [5]
  HitlevelM: 0
[2]; [6]
  Activity: 0

## Cc1cc(N)nc2ccc(-c3ccc(CCN)cc3)cc12 [TCMDC-137786]
[1]; [7]
  Average inhibition female (%): 37.0%
  % inhibition female (individual replicates) R1: 36.7%
  % inhibition female (individual replicates) R3: 37.4%
  % inhibition female (individual replicates) R4: 36.1%
[1]; [8]
  HitlevelF: 0
[2]; [7]
  Average inhibition male (%): 75.8%
  % inhibition male (individual replicates) R1: 70.7%
  % inhibition male (individual replicates) R4: 86.5%
[2]; [9]
  HitlevelM: 3

## CCOc1ccc2ccccc2c1CNCCCCCCNCc1c(OCC)ccc2ccccc12.CS(=O)(=O)O [TCMDC-137791]
[1]; [7]
  Average inhibition female (%): 47.4%
  % inhibition female (individual replicates) R1: 37.1%
  % inhibition female (individual replicates) R3: 17.2%
  % inhibition female (individual replicates) R4: 66.6%
[1]; [8]
  HitlevelF: 2
[2]; [7]
  Average inhibition male (%): 87.1%
  % inhibition male (individual replicates) R1: 89.3%
  % inhibition male (individual replicates) R3: 68.9%
  % inhibition male (individual replicates) R4: 93.6%
[2]; [9]
  HitlevelM: 4

## c1cc(Cc2ccc(Nc3c4ccccc4nc4ccccc34)cc2)cc(Nc2c3ccccc3nc3ccccc23)c1 [TCMDC-137793]
[1]; [3]
  Average inhibition female (%): 14.4%
  % inhibition female (individual replicates) R1: 13.9%
  % inhibition female (individual replicates) R3: 7.5%
  % inhibition female (individual replicates) R4: 13.1%
[1]; [4]
  HitlevelF: 0
[2]; [3]
  Average inhibition male (%): 2.5%
  % inhibition male (individual replicates) R1: 17.2%
  % inhibition male (individual replicates) R3: -11.5%
  % inhibition male (individual replicates) R4: -9.8%
[2]; [5]
  HitlevelM: 0
[2]; [6]
  Activity: 0

## COc1cc2ccccc2c(CNCCCCCCNCc2c(OC)c(OC)cc3ccccc23)c1OC.CS(=O)(=O)O [TCMDC-137795]
[1]; [7]
  Average inhibition female (%): 31.5%
  % inhibition female (individual replicates) R1: 34.0%
  % inhibition female (individual replicates) R3: 23.0%
  % inhibition female (individual replicates) R4: 18.6%
[1]; [8]
  HitlevelF: 1
[2]; [7]
  Average inhibition male (%): 66.8%
  % inhibition male (individual replicates) R1: 59.0%
  % inhibition male (individual replicates) R3: 36.7%
  % inhibition male (individual replicates) R4: 86.9%
[2]; [9]
  HitlevelM: 3

## Br.c1cc(C2=NC3CCCCC3N2)ccc1OCCCCCOc1ccc(C2=NC3CCCCC3N2)cc1 (stereo not drawn) [TCMDC-137802]
[1]; [10]
  % inhibition female (individual replicates) R1: 13.0%
  % inhibition female (individual replicates) R3: -14.3%
  % inhibition female (individual replicates) R4: -0.44%
[1]; [6]
  Average inhibition female (%): 3.6%
[2]; [10]
  % inhibition male (individual replicates) R1: 3.7%
  % inhibition male (individual replicates) R3: 3.4%
  % inhibition male (individual replicates) R4: -3.8%
[2]; [6]
  Average inhibition male (%): -1.7%

## Nc1nc(N)c2c(ccc3c2ccn3Cc2cccc(F)c2)n1 [TCMDC-137810]
[1]; [3]
  Average inhibition female (%): 73.3%
  % inhibition female (individual replicates) R1: 69.9%
  % inhibition female (individual replicates) R3: 85.4%
  % inhibition female (individual replicates) R4: 66.6%
[1]; [11]
  HitlevelF: 4
[2]; [3]
  Average inhibition male (%): 57.9%
  % inhibition male (individual replicates) R1: 71.9%
  % inhibition male (individual replicates) R3: 59.3%
  % inhibition male (individual replicates) R4: 64.6%
[2]; [12]
  HitlevelM: 3

## COc1cccc(Cn2ccc3c4c(N)nc(N)nc4ccc32)c1 [TCMDC-137811]
[1]; [3]
  Average inhibition female (%): 75.4%
  % inhibition female (individual replicates) R1: 72.3%
  % inhibition female (individual replicates) R3: 74.8%
  % inhibition female (individual replicates) R4: 79.8%
[1]; [11]
  HitlevelF: 4
[2]; [3]
  Average inhibition male (%): 42.3%
  % inhibition male (individual replicates) R1: 37.2%
  % inhibition male (individual replicates) R3: 47.4%
  % inhibition male (individual replicates) R4: 43.4%
[2]; [12]
  HitlevelM: 0

## CS(=O)(=O)O.FC(F)(F)COc1ccc2ccccc2c1CNCCCCCCNCc1c(OCC(F)(F)F)ccc2ccccc12 [TCMDC-137816]
[1]; [13]
  Average inhibition female (%): 42.8%
  % inhibition female (individual replicates) R1: 37.4%
  % inhibition female (individual replicates) R3: 26.9%
  % inhibition female (individual replicates) R4: 39.6%
[2]; [13]
  Average inhibition male (%): 91.3%
  % inhibition male (individual replicates) R1: 97.0%
  % inhibition male (individual replicates) R3: 82.6%
  % inhibition male (individual replicates) R4: 90.9%

## N#Cc1ccc(Cn2ccc3c4c(N)nc(N)nc4ccc32)cc1 [TCMDC-137820]
[1]; [3]
  Average inhibition female (%): 75.9%
  % inhibition female (individual replicates) R1: 77.9%
  % inhibition female (individual replicates) R3: 77.4%
  % inhibition female (individual replicates) R4: 70.8%
[1]; [11]
  HitlevelF: 4
[2]; [3]
  Average inhibition male (%): 57.5%
  % inhibition male (individual replicates) R1: 46.1%
  % inhibition male (individual replicates) R3: 51.2%
  % inhibition male (individual replicates) R4: 67.4%
[2]; [12]
  HitlevelM: 3

## COc1cc(CNCCCCCCNCc2cc(OC)cc3ccccc23)c2ccccc2c1.CS(=O)(=O)O [TCMDC-137823]
[1]; [3]
  Average inhibition female (%): 15.2%
  % inhibition female (individual replicates) R1: 16.9%
  % inhibition female (individual replicates) R3: 3.5%
  % inhibition female (individual replicates) R4: 20.5%
[1]; [4]
  HitlevelF: 0
[2]; [3]
  Average inhibition male (%): 27.1%
  % inhibition male (individual replicates) R1: 24.9%
  % inhibition male (individual replicates) R3: 12.3%
  % inhibition male (individual replicates) R4: 38.9%
[2]; [5]
  HitlevelM: 0
[2]; [6]
  Activity: 0

## CCCCOc1cc(CNCCCCCCNCc2cc(OCCCC)cc3ccccc23)c2ccccc2c1.CS(=O)(=O)O [TCMDC-137824]
[1]; [3]
  Average inhibition female (%): 23.5%
  % inhibition female (individual replicates) R1: 22.5%
  % inhibition female (individual replicates) R3: 5.4%
  % inhibition female (individual replicates) R4: 30.9%
[1]; [11]
  HitlevelF: 0
[2]; [3]
  Average inhibition male (%): 32.5%
  % inhibition male (individual replicates) R1: 29.7%
  % inhibition male (individual replicates) R3: -0.8%
  % inhibition male (individual replicates) R4: 46.2%
[2]; [12]
  HitlevelM: 1

## COc1c(OC)c(OC)c2ccccc2c1CNCCCCCCNCc1c(OC)c(OC)c(OC)c2ccccc12.Cl [TCMDC-137827]
[1]; [7]
  Average inhibition female (%): 37.0%
  % inhibition female (individual replicates) R1: 45.3%
  % inhibition female (individual replicates) R3: 25.5%
  % inhibition female (individual replicates) R4: 33.3%
[1]; [8]
  HitlevelF: 0
[2]; [7]
  Average inhibition male (%): 67.6%
  % inhibition male (individual replicates) R1: 64.0%
  % inhibition male (individual replicates) R4: 54.3%
[2]; [9]
  HitlevelM: 3

## CCN(C)C(=O)n1ncc2c3c(N)nc(N)nc3ccc21 [TCMDC-137828]
[1]; [10]
  % inhibition female (individual replicates) R1: 0.36%
  % inhibition female (individual replicates) R3: -2.4%
  % inhibition female (individual replicates) R4: 3.1%
[1]; [6]
  Average inhibition female (%): -0.8%
[2]; [10]
  % inhibition male (individual replicates) R1: 33.9%
  % inhibition male (individual replicates) R3: 38.2%
  % inhibition male (individual replicates) R4: 21.2%
[2]; [6]
  Average inhibition male (%): 34.9%

## COc1c(CNCCCCCCNCc2c(OC)c(OC)c3ccccc3c2OC)c(OC)c2ccccc2c1OC.CS(=O)(=O)O [TCMDC-137837]
[1]; [3]
  Average inhibition female (%): 13.6%
  % inhibition female (individual replicates) R1: 13.3%
  % inhibition female (individual replicates) R3: 14.5%
  % inhibition female (individual replicates) R4: 16.6%
[1]; [4]
  HitlevelF: 0
[2]; [3]
  Average inhibition male (%): 26.0%
  % inhibition male (individual replicates) R1: 25.5%
  % inhibition male (individual replicates) R3: 24.6%
  % inhibition male (individual replicates) R4: 53.4%
[2]; [5]
  HitlevelM: 1
[2]; [6]
  Activity: 0

## C#CCOc1ccc2ccccc2c1CNCCCCCCNCc1c(OCC#C)ccc2ccccc12.CS(=O)(=O)O [TCMDC-137838]
[1]; [13]
  Average inhibition female (%): 57.5%
  % inhibition female (individual replicates) R1: 37.7%
  % inhibition female (individual replicates) R3: 36.7%
  % inhibition female (individual replicates) R4: 72.5%
[2]; [13]
  Average inhibition male (%): 97.5%
  % inhibition male (individual replicates) R1: 98.4%
  % inhibition male (individual replicates) R3: 92.7%
  % inhibition male (individual replicates) R4: 100.9%

## COc1cc2ccccc2c(OC)c1CCNCCCCNCCc1c(OC)cc2ccccc2c1OC.CS(=O)(=O)O [TCMDC-137842]
[1]; [3]
  Average inhibition female (%): 13.3%
  % inhibition female (individual replicates) R1: 16.6%
  % inhibition female (individual replicates) R3: -7.2%
  % inhibition female (individual replicates) R4: 21.8%
[1]; [4]
  HitlevelF: 0
[2]; [3]
  Average inhibition male (%): 40.8%
  % inhibition male (individual replicates) R1: 35.9%
  % inhibition male (individual replicates) R3: -0.8%
  % inhibition male (individual replicates) R4: 68.2%
[2]; [5]
  HitlevelM: 2
[2]; [6]
  Activity: 0
